Results taken from patent US12678507B2, “Protein tyrosine kinase 6 (PTK6) degradation / disruption compounds and methods of use” (Icahn School of Medicine at Mount Sinai, priority 2018, dated 2026).

Target: T1, PTK6 (Homo sapiens, UniProt Q13882)
T1 construct: endogenous in cells; host or cells: MDA-MB231 cells (ATCC)
Experiment: Western blot of PTK6 protein levels in MDA-MB231 cells
Assay type: cell-based
Conditions: MDA-231 (MDA-MB231) cells, 500 nM, 24 hours, Western blot (FIGS. 3-5)
Description: FIGS. 2-5. Effects of exemplary compounds on reducing PTK6 protein levels in breast cancer cells. Triple negative MDA-MB231 cells were treated for 24 hours with 500 nM, 2 uM or 2.5 uM of test compound and lysed. Proteins were resolved by SDS/PAGE and immunoblotted with antibody to PTK6 (Santa Cruz, Cell Signaling) or GAPDH loading control (Cell Signaling).
FIG. 13. PTK6 degraders suppress PTK6 expression. MDA-MB231 cells were treated with compounds (500 nM or 1 uM) for 24 hours in monolayer cultures. Cells were lysed and lysates were probed with anti-PTK6 antibody.
MDA-MB231 cells were treated with DMSO or indicated compounds at 2.5 uM, 2 uM or 500 nM for 24 hours.
MDA-MB231 cells were treated with compounds (500 nM or 1 uM) for 24 hours in monolayer cultures. Cells were lysed and lysates were probed with anti-PTK6 antibody.
Cells were lysed in 1% NP-40 lysis buffer containing NaF, Na3VO4, Leupeptin, PMSF, aprotinin, and phosphatase inhibitor (PhosSTOP, Roche) as described previously (Irie et al., 2010). Cleared cell lysates were stored at −80° C. and were analyzed by western analysis as described previously (Irie et al., 2010).

T1 sequence (Q13882 whole entry): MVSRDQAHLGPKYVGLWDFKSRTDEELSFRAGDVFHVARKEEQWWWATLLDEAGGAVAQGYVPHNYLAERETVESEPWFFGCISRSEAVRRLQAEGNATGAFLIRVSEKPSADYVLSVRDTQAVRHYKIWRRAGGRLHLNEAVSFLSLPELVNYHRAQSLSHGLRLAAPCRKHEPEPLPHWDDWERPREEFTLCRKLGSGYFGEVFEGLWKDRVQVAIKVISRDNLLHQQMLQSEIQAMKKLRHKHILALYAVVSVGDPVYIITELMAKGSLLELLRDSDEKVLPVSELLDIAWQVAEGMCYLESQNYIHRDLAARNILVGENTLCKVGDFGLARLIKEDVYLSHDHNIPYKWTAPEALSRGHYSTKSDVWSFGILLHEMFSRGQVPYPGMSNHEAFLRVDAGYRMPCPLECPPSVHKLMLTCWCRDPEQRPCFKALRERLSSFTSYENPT

Row | SMILES | reducing PTK6 protein levels / suppress PTK6 expression
1 | Cc1ncsc1-c1ccc(CNC(=O)[C@@H]2C[C@@H](O)CN2C(=O)[C@@H](NC(=O)COCC(=O)N2CCN(C(=O)c3ccc(Nc4nc(C5CC5)cn5c(-c6cn[nH]c6)cnc45)c(F)c3)CC2)C(C)(C)C)cc1 [YX79-40, (2S,4R)-1-((S)-2-(2-(2-(4-(4-((6-cyclopropyl-3-(1H-pyrazol-4-yl)imidazo[1,2-a]pyrazin-8-yl)amino)-3-fluorobenzoyl)piperazin-1-yl)-2-oxoethoxy)acetamido)-3,3-dimethylbutanoyl)-4-hydroxy-N-(4-(4-methylthiazol-5-yl)benzyl)pyrrolidine-2-carboxamide] | potently suppress PTK6 expression
2 | Cc1ncsc1-c1ccc(CNC(=O)[C@@H]2C[C@@H](O)CN2C(=O)[C@@H](NC(=O)COCCOCC(=O)NCCN2CCN(C(=O)c3ccc(Nc4nc(C5CC5)cn5c(-c6cn[nH]c6)cnc45)c(F)c3)CC2)C(C)(C)C)cc1 [YX79-65, (2S,4R)-1-((S)-2-(tert-butyl)-14-(4-(4-((6-cyclopropyl-3-(1H-pyrazol-4-yl)imidazo[1,2-a]pyrazin-8-yl)amino)-3-fluorobenzoyl)piperazin-1-yl)-4,11-dioxo-6,9-dioxa-3,12-diazatetradecanoyl)-4-hydroxy-N-(4-(4-methylthiazol-5-yl)benzyl)pyrrolidine-2-carboxamide] | potently suppress PTK6 expression
3 | Cc1ncsc1-c1ccc(CNC(=O)[C@@H]2C[C@@H](O)CN2C(=O)[C@@H](NC(=O)CCOCCC(=O)N2CCN(C(=O)c3ccc(Nc4nc(C5CC5)cn5c(-c6cn[nH]c6)cnc45)c(F)c3)CC2)C(C)(C)C)cc1 [YX79-15, (2S,4R)-1-((S)-2-(3-(3-(4-(4-((6-cyclopropyl-3-(1H-pyrazol-4-yl)imidazo[1,2-a]pyrazin-8-yl)amino)-3-fluorobenzoyl)piperazin-1-yl)-3-oxopropoxy)propanamido)-3,3-dimethylbutanoyl)-4-hydroxy-N-(4-(4-methylthiazol-5-yl)benzyl)pyrrolidine-2-carboxamide] | potently suppress PTK6 expression
4 | Cc1ncsc1-c1ccc(CNC(=O)[C@@H]2C[C@@H](O)CN2C(=O)[C@@H](NC(=O)CCCCCC(=O)N2CCN(C(=O)c3ccc(Nc4nc(C5CC5)cn5c(-c6cn[nH]c6)cnc45)c(F)c3)CC2)C(C)(C)C)cc1 [YX79-12, (2S,4R)-1-((S)-2-(7-(4-(4-((6-cyclopropyl-3-(1H-pyrazol-4-yl)imidazo[1,2-a]pyrazin-8-yl)amino)-3-fluorobenzoyl)piperazin-1-yl)-7-oxoheptanamido)-3,3-dimethylbutanoyl)-4-hydroxy-N-(4-(4-methylthiazol-5-yl)benzyl)pyrrolidine-2-carboxamide] | potently suppress PTK6 expression
5 | Cc1ncsc1-c1ccc(CNC(=O)[C@@H]2C[C@@H](O)CN2C(=O)[C@@H](NC(=O)CCCCC(=O)N2CCN(C(=O)c3ccc(Nc4nc(C5CC5)cn5c(-c6cn[nH]c6)cnc45)c(F)c3)CC2)C(C)(C)C)cc1 [YX79-11, (2S,4R)-1-((S)-2-(6-(4-(4-((6-cyclopropyl-3-(1H-pyrazol-4-yl)imidazo[1,2-a]pyrazin-8-yl)amino)-3-fluorobenzoyl)piperazin-1-yl)-6-oxohexanamido)-3,3-dimethylbutanoyl)-4-hydroxy-N-(4-(4-methylthiazol-5-yl)benzyl)pyrrolidine-2-carboxamide] | potently suppress PTK6 expression
6 | Cc1ncsc1-c1ccc(CNC(=O)[C@@H]2C[C@@H](O)CN2C(=O)[C@@H](NC(=O)COCCOCCOCC(=O)N2CCN(C(=O)c3ccc(Nc4nc(C5CC5)cn5c(-c6cn[nH]c6)cnc45)c(F)c3)CC2)C(C)(C)C)cc1 [YX79-42, (2S,4R)-1-((S)-2-(tert-butyl)-14-(4-(4-((6-cyclopropyl-3-(1H-pyrazol-4-yl)imidazo[1,2-a]pyrazin-8-yl)amino)-3-fluorobenzoyl)piperazin-1-yl)-4,14-dioxo-6,9,12-trioxa-3-azatetradecanoyl)-4-hydroxy-N-(4-(4-methylthiazol-5-yl)benzyl)pyrrolidine-2-carboxamide] | potently suppress PTK6 expression
7 | Cc1ncsc1-c1ccc(CNC(=O)[C@@H]2C[C@@H](O)CN2C(=O)[C@@H](NC(=O)CCCC(=O)N2CCN(C(=O)c3ccc(Nc4nc(C5CC5)cn5c(-c6cn[nH]c6)cnc45)c(F)c3)CC2)C(C)(C)C)cc1 [YX79-10, (2S,4R)-1-((S)-2-(5-(4-(4-((6-cyclopropyl-3-(1H-pyrazol-4-yl)imidazo[1,2-a]pyrazin-8-yl)amino)-3-fluorobenzoyl)piperazin-1-yl)-5-oxopentanamido)-3,3-dimethylbutanoyl)-4-hydroxy-N-(4-(4-methylthiazol-5-yl)benzyl)pyrrolidine-2-carboxamide] | potently suppress PTK6 expression
8 | Cc1ncsc1-c1ccc(CNC(=O)[C@@H]2C[C@@H](O)CN2C(=O)[C@@H](NC(=O)CCCCCNC(=O)CN2CCN(C(=O)c3ccc(Nc4nc(C5CC5)cn5c(-c6cn[nH]c6)cnc45)c(F)c3)CC2)C(C)(C)C)cc1 [YX39-102, (2S,4R)-1-((S)-2-(6-(2-(4-(4-((6-cyclopropyl-3-(1H-pyrazol-4-yl)imidazo[1,2-a]pyrazin-8-yl)amino)-3-fluorobenzoyl)piperazin-1-yl)acetamido)hexanamido)-3,3-dimethylbutanoyl)-4-hydroxy-N-(4-(4-methylthiazol-5-yl)benzyl)pyrrolidine-2-carboxamide] | effective in reducing PTK6 protein levels
9 | Cc1ncsc1-c1ccc(CNC(=O)[C@@H]2C[C@@H](O)CN2C(=O)[C@@H](NC(=O)CCCCCCC(=O)NCCN2CCN(C(=O)c3ccc(Nc4nc(C5CC5)cn5c(-c6cn[nH]c6)cnc45)c(F)c3)CC2)C(C)(C)C)cc1 [YX79-59, N^1-(2-(4-(4-((6-cyclopropyl-3-(1H-pyrazol-4-yl)imidazo[1,2-a]pyrazin-8-yl)amino)-3-fluorobenzoyl)piperazin-1-yl)ethyl)-N^8-((S)-1-((2S,4R)-4-hydroxy-2-((4-(4-methylthiazol-5-yl)benzyl)carbamoyl)pyrrolidin-1-yl)-3,3-dimethyl-1-oxobutan-2-yl)octanediamide] | potently suppress PTK6 expression
10 | Cc1ncsc1-c1ccc([C@H](C)NC(=O)[C@@H]2C[C@@H](O)CN2C(=O)[C@@H](NC(=O)COCCOCCOCCNC(=O)CN2CCN(C(=O)c3ccc(Nc4nc(C5CC5)cn5c(-c6cn[nH]c6)cnc45)c(F)c3)CC2)C(C)(C)C)cc1 [YX69-159, (2S,4R)-1-((S)-2-(tert-butyl)-17-(4-(4-((6-cyclopropyl-3-(1H-pyrazol-4-yl)imidazo[1,2-a]pyrazin-8-yl)amino)-3-fluorobenzoyl)piperazin-1-yl)-4,16-dioxo-6,9,12-trioxa-3,15-diazaheptadecanoyl)-4-hydroxy-N-((S)-1-(4-(4-methylthiazol-5-yl)phenyl)ethyl)pyrrolidine-2-carboxamide] | potently suppress PTK6 expression
